Assay [1] concerns the target T1, Human STAT6 (truncated, aa122-658, with N-terminal His-tag) (Homo sapiens, UniProt P42226).
T1 construct: Human STAT6 (truncated, aa122-658, with N-terminal His-tag, expressed in insect cells); His-tag (N); made in house; host or cells: insect cells
T1 sequence (P42226 122-658): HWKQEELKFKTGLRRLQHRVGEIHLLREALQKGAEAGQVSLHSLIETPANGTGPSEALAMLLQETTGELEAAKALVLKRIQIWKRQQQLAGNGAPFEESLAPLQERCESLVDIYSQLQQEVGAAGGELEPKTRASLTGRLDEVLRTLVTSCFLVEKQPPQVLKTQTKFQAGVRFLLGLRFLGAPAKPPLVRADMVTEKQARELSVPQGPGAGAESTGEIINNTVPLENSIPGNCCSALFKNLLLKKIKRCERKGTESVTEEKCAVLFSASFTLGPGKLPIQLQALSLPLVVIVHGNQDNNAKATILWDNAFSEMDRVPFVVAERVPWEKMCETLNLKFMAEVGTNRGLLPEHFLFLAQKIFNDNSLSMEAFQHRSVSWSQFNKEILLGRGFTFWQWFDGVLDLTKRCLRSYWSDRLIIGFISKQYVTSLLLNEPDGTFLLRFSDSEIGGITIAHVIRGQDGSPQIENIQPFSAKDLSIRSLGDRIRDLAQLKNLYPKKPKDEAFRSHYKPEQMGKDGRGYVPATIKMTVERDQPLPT
Nature of the assay: Surface plasmon resonance (SPR) assay, binding to human STAT6. Particulars: Biacore 8K, 25° C, immobilized human STAT6 on CM5 chip, multi-cycle kinetics; geometric mean. Here is the method:
Surface Plasmon Resonance Assay
Biacore instruments from the 8K-series (Cytiva) were used, and measurements were performed at 25° C. Human STAT6 (truncated, aa122-658, with N-terminal His-tag, expressed in insect cells) was immobilized in the active flow cells on a CM5 chip using amine-coupling (default settings) at 10 μg/ml in 10 mM acetate buffer pH 5.5, at a contact time of 120-420 sec. and a flow rate of 10 μl/min. Reference flow cells were deactivated using blank immobilization. PBS-P+(Cytiva) supplemented with 2% DMSO was used as running buffer, and solvent correction was applied. Compounds were tested by multi-cycle kinetics injections using a contact time of 60 sec., dissociation time of up to 300 sec., and a flow rate of 30 μl/min.
Solvent-corrected, reference-subtracted and blank-corrected data was processed and binding isotherms were fitted according to a single report point from each sensorgram (Standard: Late binding (5 sec. before injection end); alternative: Earlier report point according to binding profile). Data fitting was done both with unfixed Rmax and with Rmax fixed to the theoretical value* assuming 1:1 binding to allow processing of data from both weak and strong binders as well as to evaluate binding stoichiometry.
Positive controls were run at the beginning, during, and at the end of the screen to evaluate surface activity.
*Equation for calculation of the theoretical Rmax(Theoretical Rmax=(MW Analyte/MW Ligand)×immobilization level).

The test system of assay [2] is Eotaxin-3 (CCL26) release in human whole blood stimulated with IL-4. Briefly: Human whole blood eotaxin-3 assay (IL-4 stimulated eotaxin-3 release). Type of assay: cell-based. The following applies: Homo sapiens, 48 h, human whole blood stimulated with recombinant human IL-4, 48 h; inhibition of eotaxin-3 release; given for test compounds with >80% Emax; geometric mean. In short, it runs like this: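 Eotaxin-3 (CCL26) release was quantified by MSD immunoassay in supernatants of human heparinised whole blood after 48 h at 37° C with IL-4 ([…] final). Compounds, in 4-fold dilutions at 0.5% DMSO, were added 2 h before stimulation.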

Molecules are shown by their SMILES.

As a reminder, the Kd is the free concentration of one partner at which half of the binding sites on the other are occupied at equilibrium, for simple one-to-one binding. Low values mean tighter binding, high ones weaker binding. What is called EC50 is the midpoint of the concentration-response curve.

In turn, `CNc1ccn(-c2ccnc3c2cc(CN2CCC(c4ccc(C(=O)N(C)C)cc4)C(F)(F)C2)n3C)c(=O)c1` (single isomer, unassigned) [Example 1f2] had a Kd in assay [1] of 81.3 nM.

For `CNc1ccn(-c2ccnc3c2cc(CN2CC[C@H](c4ccc(C(=O)N(C)C)cc4)[C@H](F)C2)n3C)c(=O)c1` (single isomer, unassigned) [Example 1f6], the Kd in assay [1] was 67.5 nM.

In assay [1], `CNc1ccn(-c2ccnc3c2cc([C@H](C)N2CCC(c4ccc(C(=O)N(C)C)cc4)CC2)n3C)c(=O)c1` (single isomer, unassigned) [Example 1m72] registered a Kd of 338 nM.

`CN(C)C(=O)c1ccc(C2CCN(Cc3cc4c(-n5ncc(N)cc5=O)ccnc4n3C)CC2)cc1` [Example 1ab4, 4-(1-((4-(4-Amino-6-oxopyridazin-1 (6H)-yl)-1-methyl-1H-pyrrolo[2,3-b]pyridin-2-yl)methyl)piperidin-4-yl)-N,N-dimethylbenzamide] gave a dissociation constant (Kd) in assay [1] of 224 nM.

Compound `CNc1cc(=O)n(-c2ccnc3c2cc(CN2CCC(c4ccc(C(=O)N(C)C)cc4)CC2)n3C)cn1` [Example 1ac1, N,N-Dimethyl-4-(1-((1-methyl-4-(4-(methylamino)-6-oxopyrimidin-1 (6H)-yl)-1H-pyrrolo[2,3-b]pyridin-2-yl)methyl)piperidin-4-yl)benzamide] came in with a Kd in assay [1] of 4090 nM.

On to `Cc1cn(-c2ccnc3c2cc(CN2CCC(c4ccc(C(=O)N(C)C)cc4)CC2)n3C)c(=O)nc1N` [Example 1ac3, 4-(1-((4-(4-Amino-5-methyl-2-oxopyrimidin-1 (2H)-yl)-1-methyl-1H-pyrrolo[2,3-b]pyridin-2-yl)methyl)piperidin-4-yl)-N,N-dimethylbenzamide], for which the Kd in assay [1] was found to be 91.8 nM.

As for `CN(C)C(=O)c1ccc(C2CCN(Cc3cc4c(-n5ccc(NC(=O)OC(C)(C)C)cc5=O)ccnc4n3C)CC2)cc1` [Example 1d2, tert-Butyl N-[1-[2-[[4-[4-(dimethylcarbamoyl)phenyl]-1-piperidyl]methyl]-1-methyl-pyrrolo[2,3-b]pyridin-4-yl]-2-oxo-4-pyridyl]carbamate], the Kd in assay [1] was 175 nM.

`CCOC(=O)Nc1ccn(-c2ccnc3c2cc(CN2CCC(c4ccc(C(=O)N(C)C)cc4)CC2)n3C)c(=O)c1` [Example 1d5, Ethyl N-[1-[2-[[4-[4-(dimethylcarbamoyl)phenyl]-1-piperidyl]methyl]-1-methyl-pyrrolo[2,3-b]pyridin-4-yl]-2-oxo-4-pyridyl]carbamate] came in with a Kd in assay [1] of 178 nM.

Turning to `COC(=O)Nc1ccn(-c2ccnc3c2cc(CN2CCC(c4ccc(C(=O)N(C)C)cc4)CC2)n3C)c(=O)c1` [Example 1d6, Methyl N-[1-[2-[[4-[4-(dimethylcarbamoyl)phenyl]-1-piperidyl]methyl]-1-methyl-pyrrolo[2,3-b]pyridin-4-yl]-2-oxo-4-pyridyl]carbamate], binding in assay [1] was characterised by a dissociation constant (Kd) of 152 nM.

For `CN(C)C(=O)c1ccc(C2CCN(Cc3cc4c(-n5ccc(NCC6CC6)cc5=O)ccnc4n3C)CC2)cc1` [Example 1d7, 4-[1-[[4-[4-(cyclo-Propylmethylamino)-2-oxo-1-pyridyl]-1-methyl-pyrrolo[2,3-b]pyridin-2-yl]methyl]-4-piperidyl]-N,N-dimethyl-benzamide], binding in assay [1] was characterised by a dissociation constant (Kd) of 99.8 nM.

`CN(C)C(=O)c1ccc(C2CCN(Cc3cc4c(-n5ccc(NC(C)(C)C)cc5=O)ccnc4n3C)CC2)cc1` [Example 1d9, 4-[1-[[4-[4-(tert-Butylamino)-2-oxo-1-pyridyl]-1-methyl-pyrrolo[2,3-b]pyridin-2-yl]methyl]-4-piperidyl]-N,N-dimethyl-benzamide] gave a Kd in assay [1] of 4970 nM.

In turn, `CCN(CC)C(=O)c1ccc(C2CCN(Cc3cc4c(-n5ccc(NC)cc5=O)ccnc4n3C)CC2)cc1` [Example 1d10, N,N-Diethyl-4-[1-[[1-methyl-4-[4-(methylamino)-2-oxo-1-pyridyl]pyrrolo[2,3-b]pyridin-2-yl]methyl]-4-piperidyl]benzamide] came in with a Kd in assay [1] of 22.8 nM.

`CCCN(CCC)C(=O)c1ccc(C2CCN(Cc3cc4c(-n5ccc(NC)cc5=O)ccnc4n3C)CC2)cc1` [Example 1d11, N,N-Dipropyl-4-[1-[[1-methyl-4-[4-(methylamino)-2-oxo-1-pyridyl]pyrrolo[2,3-b]pyridin-2-yl]methyl]-4-piperidyl]benzamide] had a Kd in assay [1] of 38.4 nM.

Take `CN(C)C(=O)c1ccc(C2CCN(Cc3cc4c(-n5ccc(NCc6ccccc6)cc5=O)ccnc4n3C)CC2)cc1` [Example 1d12, 4-[1-[[4-[4-(Benzylamino)-2-oxo-1-pyridyl]-1-methyl-pyrrolo[2,3-b]pyridin-2-yl]methyl]-4-piperidyl]-N,N-dimethyl-benzamide]: the Kd in assay [1] was 31 nM.

In turn, `CN(C)C(=O)c1ccc(C2CCN(Cc3cc4c(-n5ccc(NCc6ccc(Cl)cc6)cc5=O)ccnc4n3C)CC2)cc1` [Example 1d13, 4-[1-[[4-[4-[(4-Chlorophenyl)methylamino]-2-oxo-1-pyridyl]-1-methyl-pyrrolo[2,3-b]pyridin-2-yl]methyl]-4-piperidyl]-N,N-dimethyl-benzamide] returned a Kd in assay [1] of 49 nM.

`CN(C)C(=O)c1ccc(C2CCN(Cc3cc4c(-n5ccc(NCc6ccc(F)c(F)c6)cc5=O)ccnc4n3C)CC2)cc1` [Example 1d14, 4-[1-[[4-[4-[(3,4-Difluorophenyl)methylamino]-2-oxo-1-pyridyl]-1-methyl-pyrrolo[2,3-b]pyridin-2-yl]methyl]-4-piperidyl]-N,N-dimethyl-benzamide] yielded a Kd in assay [1] of 124 nM.

On to `CNc1ccn(-c2ccnc3c2cc(C(C)N2CC=C(c4c(C)cc(C(=O)N(C)C)cc4F)C(F)(F)C2)n3C)c(=O)c1` (centres unmarked) [Example 1m139, 4-(3,3-difluoro-1-(1-(1-methyl-4-(4-(methylamino)-2-oxopyridin-1 (2H)-yl)-1H-pyrrolo[2,3-b]pyridin-2-yl)ethyl)-1,2,3,6-tetrahydropyridin-4-yl)-3-fluoro-N,N,5-trimethylbenzamide], for which, in assay [2], the EC50 amounted to 50.2 nM.

Consider `CNc1c(F)cn(-c2ccnc3c2cc([C@H](C)N2CC=C(c4c(C)cc(C(=O)N(C)C)cc4F)CC2)n3C)c(=O)c1F` [Example 1m140, (S)-4-(1-(1-(4-(3,5-difluoro-4-(methylamino)-2-oxopyridin-1 (2H)-yl)-1-methyl-1H-pyrrolo[2,3-b]pyridin-2-yl)ethyl)-1,2,3,6-tetrahydropyridin-4-yl)-3-fluoro-N,N,5-trimethylbenzamide], for which, in assay [2], the half-maximal effective concentration (EC50) was 16.1 nM.

For the compound `CN(C)C(=O)c1ccc(C2=CCN(Cc3cc4c(-n5ccc6c(c5=O)CCN6)ccnc4n3C)CC2)c(OC(F)(F)F)c1` [Example 1m146, NN-dimethyl-4-(1-((1-methyl-4-(4-oxo-1,2,3,4-tetrahydro-5H-pyrrolo[3,2-c]pyridin-5-yl)-1H-pyrrolo[2,3-b]pyridin-2-yl)methyl)-1,2,3,6-tetrahydropyridin-4-yl)-3-(trifluoromethoxy)benzamide], in assay [2], the EC50 is 156 nM.

`[2H]C([2H])([2H])N(C(=O)c1ccc(C2CCN([C@@H](C)c3cc4c(-n5ccc6[nH]nc(C(F)(F)F)c6c5=O)ccnc4n3C)CC2)cc1)C([2H])([2H])[2H]` [Example 1m147, (S)—N,N-bis(methyl-d3)-4-(1-(1-(1-methyl-4-(4-oxo-3-(trifluoromethyl)-1,4-dihydro-5H-pyrazolo[4,3-c]pyridin-5-yl)-1H-pyrrolo[2,3-b]pyridin-2-yl)ethyl)piperidin-4-yl)benzamide]: the EC50 in assay [2] came out at 60.1 nM.

These data come from patent publication US20260001893A1, “SMALL MOLECULE MODULATORS OF STAT6” (Gilead Sciences, Inc., priority 2024, published 2026).
